Our source for the Activity values is ChEMBL document CHEMBL3046275, “EBHU18, a novel derivative of fatty acid bile acid conjugates, prevents cholesterol gallstone formation in experimental mice” (Med Chem Res, 2012).

The subject of data set [1] is Mus musculus. Briefly: Reduction of lithogenic diet-induced gallstone formation in Mus musculus C57BL/6 (mouse) at 10 mg/kg/day, po followed by lithogenic diet feeding for 8 weeks by infrared photoacoustic spectroscopic analysis (reference value: 1.53 +/- 0.63 g). In kind it is functional.
Data set [2] deals with Mus musculus. Description: Toxicity in lithogenic diet-fed Mus musculus C57BL/6 (mouse) assessed as change in body weight at 10 mg/kg/day, po followed by lithogenic diet feeding for 8 weeks (reference value: 30.82 +/- 2.88 g). In kind it is organism-based. The note with it: in vivo, 1344 h. On the set-up: route oral.
For data set [3], the system named is Mus musculus. Briefly: Hepatoprotective activity in lithogenic diet-fed Mus musculus C57BL/6 (mouse) assessed as decrease in serum triglyceride level at 10 mg/kg/day, po after 8 weeks relative to untreated control. The data set is classed as functional, organism-based.
In data set [4] the test system is Mus musculus. Briefly: Hepatoprotective activity in lithogenic diet-fed Mus musculus C57BL/6 (mouse) assessed as decrease in serum total cholesterol level at 10 mg/kg/day, po after 8 weeks relative to untreated control. The data set is classed as functional, organism-based.
Data set [5] deals with Mus musculus. Description: Hepatoprotective activity in lithogenic diet-fed Mus musculus C57BL/6 (mouse) assessed as decrease in serum ALT level at 10 mg/kg/day, po after 8 weeks relative to untreated control. The data set is classed as functional, organism-based.
Data set [6] concerns Mus musculus. Description: Toxicity in lithogenic diet-fed Mus musculus C57BL/6 (mouse) assessed as change in body weight at 10 mg/kg/day, po after 8 weeks. The note with it: in vivo, 1344 h. The data set is classed as organism-based. On the set-up: route oral.
For data set [7], the system named is Mus musculus. Briefly: Protection against lithogenic diet-induced gallstone formation in Mus musculus C57BL/6 (mouse) at 10 mg/kg/day, po after 8 weeks by infrared photoacoustic spectroscopic analysis relative to untreated control. The data set is classed as functional, organism-based.
The subject of data set [8] is Mus musculus. Description: Reduction of lithogenic diet-induced fatty liver formation in Mus musculus C57BL/6 (mouse) at 10 mg/kg/day, po followed by lithogenic diet feeding for 8 weeks by hematoxylin-eosin staining relative to untreated control. In kind it is functional, organism-based.
The subject of data set [9] is Mus musculus. Briefly: Hepatoprotective activity in lithogenic diet-fed Mus musculus C57BL/6 (mouse) assessed as decrease in serum total cholesterol level at 10 mg/kg/day, po followed by lithogenic diet feeding for 8 weeks (reference value: 2.24 +/- 0.27 mmol/l). In kind it is functional.
Data set [10] has as its system Mus musculus. Briefly: Hepatoprotective activity in lithogenic diet-fed Mus musculus C57BL/6 (mouse) assessed as decrease in serum triglyceride level at 10 mg/kg/day, po followed by lithogenic diet feeding for 8 weeks (reference value: 1.01+/- 0.15 mmol/l). In kind it is functional.
Data set [11] has as its system Mus musculus. Description: Hepatoprotective activity in lithogenic diet-fed Mus musculus C57BL/6 (mouse) assessed as decrease in serum ALT level at 10 mg/kg/day, po followed by lithogenic diet feeding for 8 weeks (reference value: 42.6 +/- 7.63 IU/L). In kind it is functional.
For data set [12], the system named is Mus musculus. Briefly: Reduction of lithogenic diet-induced gallstone formation in Mus musculus C57BL/6 (mouse) at 0.5 mg/kg/day, po followed by lithogenic diet feeding for 8 weeks by infrared photoacoustic spectroscopic analysis (reference value: 1.53 +/- 0.63 g). The data set is classed as functional.
Data set [13] concerns Mus musculus. Briefly: Toxicity in lithogenic diet-fed Mus musculus C57BL/6 (mouse) assessed as change in body weight at 3 mg/kg/day, po followed by lithogenic diet feeding for 8 weeks (reference value: 30.82 +/- 2.88 g). On the set-up: route oral. The following applies: in vivo, 1344 h. The data set is classed as organism-based.
Data set [14] has as its system Mus musculus. Description: Toxicity in lithogenic diet-fed Mus musculus C57BL/6 (mouse) assessed as change in body weight at 0.5 mg/kg/day, po followed by lithogenic diet feeding for 8 weeks (reference value: 30.82 +/- 2.88 g). In kind it is organism-based. On the set-up: route oral. The following applies: in vivo, 1344 h.
Data set [15] has as its system Mus musculus. Briefly: Hepatoprotective activity in lithogenic diet-fed Mus musculus C57BL/6 (mouse) assessed as decrease in serum triglyceride level at 0.5 to 3 mg/kg/day, po after 8 weeks relative to untreated control. The data set is classed as functional, organism-based.
Data set [16] deals with Mus musculus. Description: Hepatoprotective activity in lithogenic diet-fed Mus musculus C57BL/6 (mouse) assessed as decrease in serum total cholesterol level at 0.5 to 3 mg/kg/day, po after 8 weeks relative to untreated control. In kind it is functional, organism-based.
Data set [17] has as its system Mus musculus. Briefly: Hepatoprotective activity in lithogenic diet-fed Mus musculus C57BL/6 (mouse) assessed as decrease in serum ALT level at 0.5 to 3 mg/kg/day, po after 8 weeks relative to untreated control. In kind it is functional, organism-based.
Data set [18] has as its system Mus musculus. Briefly: Protection against lithogenic diet-induced gallstone formation in Mus musculus C57BL/6 (mouse) at 0.5 mg/kg/day, po after 8 weeks by infrared photoacoustic spectroscopic analysis relative to untreated control. The data set is classed as functional, organism-based.
Data set [19] deals with Mus musculus. Description: Protection against lithogenic diet-induced gallstone formation in Mus musculus C57BL/6 (mouse) at 3 mg/kg/day, po after 8 weeks by infrared photoacoustic spectroscopic analysis relative to untreated control. The data set is classed as functional, organism-based.
For data set [20], the system named is Mus musculus. Description: Reduction of lithogenic diet-induced fatty liver formation in Mus musculus C57BL/6 (mouse) at 0.5 to 3 mg/kg/day, po after 8 weeks by hematoxylin-eosin staining relative to untreated control. The data set is classed as functional, organism-based.
Data set [21] has as its system Mus musculus. Briefly: Toxicity in lithogenic diet-fed Mus musculus C57BL/6 (mouse) assessed as change in body weight at 0.5 to 3 mg/kg/day, po after 8 weeks. The data set is classed as organism-based. On the set-up: route oral. The note with it: in vivo, 1344 h.
In data set [22] the test system is Mus musculus. Description: Reduction of lithogenic diet-induced fatty liver formation in Mus musculus C57BL/6 (mouse) at 0.5 to 3 mg/kg/day, po followed by lithogenic diet feeding for 8 weeks by hematoxylin-eosin staining relative to untreated control. The data set is classed as functional, organism-based.
Data set [23] deals with Mus musculus. Briefly: Hepatoprotective activity in lithogenic diet-fed Mus musculus C57BL/6 (mouse) assessed as decrease in serum total cholesterol level at 3 mg/kg/day, po followed by lithogenic diet feeding for 8 weeks (reference value: 2.24 +/- 0.27 mmol/l). In kind it is functional.
The subject of data set [24] is Mus musculus. Description: Hepatoprotective activity in lithogenic diet-fed Mus musculus C57BL/6 (mouse) assessed as decrease in serum total cholesterol level at 0.5 mg/kg/day, po followed by lithogenic diet feeding for 8 weeks (reference value: 2.24 +/- 0.27 mmol/l). The data set is classed as functional.
The test system of data set [25] is Mus musculus. Description: Hepatoprotective activity in lithogenic diet-fed Mus musculus C57BL/6 (mouse) assessed as decrease in serum triglyceride level at 3 mg/kg/day, po followed by lithogenic diet feeding for 8 weeks (reference value: 1.01+/- 0.15 mmol/l). The data set is classed as functional.
Data set [26] has as its system Mus musculus. Description: Hepatoprotective activity in lithogenic diet-fed Mus musculus C57BL/6 (mouse) assessed as decrease in serum triglyceride level at 0.5 mg/kg/day, po followed by lithogenic diet feeding for 8 weeks (reference value: 1.01+/- 0.15 mmol/l). The data set is classed as functional.
Data set [27] relates to Mus musculus. Briefly: Hepatoprotective activity in lithogenic diet-fed Mus musculus C57BL/6 (mouse) assessed as decrease in serum ALT level at 3 mg/kg/day, po followed by lithogenic diet feeding for 8 weeks (reference value: 42.6 +/- 7.63 IU/L). In kind it is functional.
Data set [28] deals with Mus musculus. Description: Hepatoprotective activity in lithogenic diet-fed Mus musculus C57BL/6 (mouse) assessed as decrease in serum ALT level at 0.5 mg/kg/day, po followed by lithogenic diet feeding for 8 weeks (reference value: 42.6 +/- 7.63 IU/L). The data set is classed as functional.
Data set [29] concerns Mus musculus. Description: Reduction of lithogenic diet-induced gallstone formation in Mus musculus C57BL/6 (mouse) at 3 mg/kg/day, po followed by lithogenic diet feeding for 8 weeks by infrared photoacoustic spectroscopic analysis (reference value: 1.53 +/- 0.63 g). In kind it is functional.

Activity calls are given as the source filed them. No cut-off for these calls is given here.

In the case of `C[C@H](CCC(=O)O)[C@H]1CC[C@H]2[C@@H]3[C@@H](O)C[C@@H]4C[C@H](O)CC[C@]4(C)[C@H]3CC[C@]12C` [URSODIOL], the Activity is listed as 1.41 g in the data set with Mus musculus [1]; 31.76 g in the data set on Mus musculus [2]; “Non-toxic” with Mus musculus [6]; 2.16 mmol/L with Mus musculus [9]; 0.75 mmol/L in the data set on Mus musculus [10]; 38 IU/L in the data set on Mus musculus [11]. The outcome in the data set with Mus musculus [3], in the data set with Mus musculus [4] and in the data set on Mus musculus [5] was Active. In addition, the result in the data set on Mus musculus [7] and in the data set on Mus musculus [8] was inactive.
With `CCCCCCCCCCCCCCCCCCCC(=O)NCCCCC(NC(=O)CC[C@@H](C)[C@H]1CC[C@H]2[C@@H]3C(O)C[C@@H]4C[C@H](O)CC[C@]4(C)[C@H]3C[C@H](O)[C@]12C)C(=O)O` (some centres undefined), the Activity in the data set on Mus musculus [12] is listed as 1.02 g; in the data set on Mus musculus [13], 31.74 g; in the data set on Mus musculus [14] it was 31.89 g; in the data set on Mus musculus [21], “Non-toxic”; with Mus musculus [23], 2.04 mmol/L; in the data set on Mus musculus [24] it was 2.09 mmol/L. In addition, the Activity was 0.74 mmol/L in the data set on Mus musculus [25]; 0.76 mmol/L in the data set with Mus musculus [26]; 36.5 IU/L with Mus musculus [27]; 34.8 IU/L in the data set with Mus musculus [28]; 0.96 g with Mus musculus [29]. Besides, the result in the data set with Mus musculus [15], in the data set on Mus musculus [16], in the data set with Mus musculus [17], in the data set with Mus musculus [19], in the data set on Mus musculus [20] and in the data set on Mus musculus [22] was Active. Also, in the data set with Mus musculus [18], the result was inactive.
